Converted amounts (≈) assume the structure as drawn.
Experiments:
Format in all cases: cell-based
[1] = test system: methicillin-resistant Staphylococcus epidermidis (MRSE); assay: MIC, two-fold agar dilution (CLSI), clinical isolates
In short: (§1)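 CLSI two-fold agar dilution; MIC of test samples read per tested strain.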

[2] = test system: Enterococcus faecalis (EFA); assay: as above
In short: as §1

[3] = test system: Streptococcus pneoumoniae (SPN); assay: as above
In short: as §1

[4] = test system: methicillin-resistant Staphylococcus aureus (MRSA); assay: as above
In short: as §1

[5] = test system: Enterococcus faecium (EFM); assay: as above
In short: as §1

[6] = test system: methicillin-sensitive Staphylococcus epidermidis (MSSE); assay: as above
In short: as §1

[7] = test system: methicillin-sensitive Staphylococcus aureus (MSSA); assay: as above
In short: as §1

[8] = test system: Escherichia coli (including ESBLs, non-ESBLs); assay: as above
In short: as §1

[9] = test system: Moraxella catarrhalis (BCA); assay: as above; settings: for Anti-bacterial activity (MIC), strain BCA 14-10: clinical isolate BCA 14-10
In short: as §1

[10] = test system: HCT-116 colorectal cancer cell line; assay: CCK-8 proliferation inhibition; settings: Homo sapiens, HCT-116, 72 h, concentration of 30 μM; 72 hours; CCK-8; read-out: HCT116 inhibition rate/%
In short: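 Growth inhibition is read by CCK-8 (1:10 dilution) after 72 h of compound exposure. HCT-116 cells grow in McCoy's 5A containing 10% newborn bovine serum at 2000 cells/well, with 1‰ DMSO as vehicle control.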

## Cc1cc(NC(=O)[C@@H]2CC3(CC3)CN2C(=O)[C@H](CC2CCCC2)CN(O)C=O)no1 [Example 39]
[1]; strain MRSE 15-1
  MIC (anti-bacterial activity): 1 µg/mL (≈ 2.39 µM)
[1]; strain MRSE 15-2
  MIC (anti-bacterial activity): 1 µg/mL (≈ 2.39 µM)
[1]; strain MRSE 15-3
  MIC (anti-bacterial activity): 1 µg/mL (≈ 2.39 µM)
[1]; strain MRSE 15-7
  MIC (anti-bacterial activity): 1 µg/mL (≈ 2.39 µM)
[2]; strain EFA 15-1
  MIC (anti-bacterial activity): 4 µg/mL (≈ 9.56 µM)
[2]; strain EFA 15-2
  MIC (anti-bacterial activity): 4 µg/mL (≈ 9.56 µM)
[2]; strain EFA 15-3
  MIC (anti-bacterial activity): 1 µg/mL (≈ 2.39 µM)
[2]; strain EFA 15-4
  MIC (anti-bacterial activity): 4 µg/mL (≈ 9.56 µM)
[2]; strain EFA 15-5
  MIC (anti-bacterial activity): 4 µg/mL (≈ 9.56 µM)
[2]; strain EFA 15-6
  MIC (anti-bacterial activity): 4 µg/mL (≈ 9.56 µM)
[2]; strain EFA 15-9
  MIC (anti-bacterial activity): 4 µg/mL (≈ 9.56 µM)
[3]; strain SPN 16-2
  MIC (anti-bacterial activity): 0.5 µg/mL (≈ 1.19 µM)
[3]; strain SPN 16-4
  MIC (anti-bacterial activity): 4 µg/mL (≈ 9.56 µM)
[4]; strain MRSA 15-1
  MIC (anti-bacterial activity): 1 µg/mL (≈ 2.39 µM)
[4]; strain MRSA 15-2
  MIC (anti-bacterial activity): 1 µg/mL (≈ 2.39 µM)
[4]; strain MRSA 15-3
  MIC (anti-bacterial activity): 1 µg/mL (≈ 2.39 µM)
[4]; strain MRSA 15-4
  MIC (anti-bacterial activity): 1 µg/mL (≈ 2.39 µM)
[5]; strain EFM 15-1
  MIC (anti-bacterial activity): 1 µg/mL (≈ 2.39 µM)
[5]; strain EFM 15-2
  MIC (anti-bacterial activity): 1 µg/mL (≈ 2.39 µM)
[5]; strain EFM 15-3
  MIC (anti-bacterial activity): 0.5 µg/mL (≈ 1.19 µM)
[5]; strain EFM 15-4
  MIC (anti-bacterial activity): 1 µg/mL (≈ 2.39 µM)
[5]; strain EFM 15-5
  MIC (anti-bacterial activity): 1 µg/mL (≈ 2.39 µM)
[5]; strain EFM 15-6
  MIC (anti-bacterial activity): 1 µg/mL (≈ 2.39 µM)
[6]; strain MSSE 15-3
  MIC (anti-bacterial activity): 1 µg/mL (≈ 2.39 µM)
[6]; strain MSSE 15-4
  MIC (anti-bacterial activity): 1 µg/mL (≈ 2.39 µM)
[6]; strain MSSE 15-5
  MIC (anti-bacterial activity): 1 µg/mL (≈ 2.39 µM)
[6]; strain MSSE 15-6
  MIC (anti-bacterial activity): 1 µg/mL (≈ 2.39 µM)
[7]; strain MSSA 15-3
  MIC (anti-bacterial activity): 1 µg/mL (≈ 2.39 µM)
[7]; strain MSSA 15-4
  MIC (anti-bacterial activity): 1 µg/mL (≈ 2.39 µM)
[7]; strain MSSA 15-5
  MIC (anti-bacterial activity): 1 µg/mL (≈ 2.39 µM)
[7]; strain MSSA 15-6
  MIC (anti-bacterial activity): 1 µg/mL (≈ 2.39 µM)
[8]; strain ECO+ 15-1
  MIC (anti-bacterial activity): 16 µg/mL (≈ 38.2 µM)
[8]; strain ECO+ 15-2
  MIC (anti-bacterial activity): 32 µg/mL (≈ 76.5 µM)
[8]; strain ECO+ 15-3
  MIC (anti-bacterial activity): 32 µg/mL (≈ 76.5 µM)
[8]; strain ECO+ 15-4
  MIC (anti-bacterial activity): 16 µg/mL (≈ 38.2 µM)
[8]; strain ECO− 15-1
  MIC (anti-bacterial activity): 32 µg/mL (≈ 76.5 µM)
[8]; strain ECO− 15-2
  MIC (anti-bacterial activity): 32 µg/mL (≈ 76.5 µM)
[8]; strain ECO− 15-3
  MIC (anti-bacterial activity): 32 µg/mL (≈ 76.5 µM)
[8]; strain ECO− 15-4
  MIC (anti-bacterial activity): 32 µg/mL (≈ 76.5 µM)
[9]
  Anti-bacterial activity (MIC), strain BCA 14-10: 0.5 µg/mL
[9]; strain BCA 14-1
  MIC (anti-bacterial activity): 1 µg/mL (≈ 2.39 µM)
[9]; strain BCA 14-4
  MIC (anti-bacterial activity): 1 µg/mL (≈ 2.39 µM)
[9]; strain BCA 14-5
  MIC (anti-bacterial activity): 0.5 µg/mL (≈ 1.19 µM)
[9]; strain BCA 14-6
  MIC (anti-bacterial activity): 1 µg/mL (≈ 2.39 µM)
[9]; strain BCA 14-7
  MIC (anti-bacterial activity): 1 µg/mL (≈ 2.39 µM)
[9]; strain BCA 14-8
  MIC (anti-bacterial activity): 1 µg/mL (≈ 2.39 µM)
[10]
  inhibition at 30 µM: -10%

## O=CN(O)C[C@@H](CC1CCCC1)C(=O)N1CC2(CC2)C[C@H]1C(=O)Nc1nncs1 [Example 41, (S)-5-((R)-3-cyclopentyl-2-((N-hydroxyformamido)methyl)propionyl)-N-(1,3,4-thiadiazol-2-yl)-5-azaspiro[2.4]heptane-6-carboxamide]
[1]; clinical isolate MRSE 15-1
  Anti-bacterial activity (MIC), strain MRSE 15-1: 0.5 µg/mL
[1]; clinical isolate MRSE 15-2
  Anti-bacterial activity (MIC), strain MRSE 15-2: 1 µg/mL
[1]; clinical isolate MRSE 15-3
  Anti-bacterial activity (MIC), strain MRSE 15-3: 1 µg/mL
[1]; clinical isolate MRSE 15-7
  Anti-bacterial activity (MIC), strain MRSE 15-7: 1 µg/mL
[2]; clinical isolate EFA 15-1
  Anti-bacterial activity (MIC), strain EFA 15-1: 4 µg/mL
[2]; clinical isolate EFA 15-2
  Anti-bacterial activity (MIC), strain EFA 15-2: 4 µg/mL
[2]; clinical isolate EFA 15-3
  Anti-bacterial activity (MIC), strain EFA 15-3: 1 µg/mL
[2]; clinical isolate EFA 15-4
  Anti-bacterial activity (MIC), strain EFA 15-4: 4 µg/mL
[2]; clinical isolate EFA 15-5
  Anti-bacterial activity (MIC), strain EFA 15-5: 4 µg/mL
[2]; clinical isolate EFA 15-6
  Anti-bacterial activity (MIC), strain EFA 15-6: 4 µg/mL
[2]; clinical isolate EFA 15-9
  Anti-bacterial activity (MIC), strain EFA 15-9: 4 µg/mL
[3]; clinical isolate SPN 16-2
  Anti-bacterial activity (MIC), strain SPN 16-2: 0.25 µg/mL
[3]; clinical isolate SPN 16-4
  Anti-bacterial activity (MIC), strain SPN 16-4: 4 µg/mL
[4]; clinical isolate MRSA 15-1
  Anti-bacterial activity (MIC), strain MRSA 15-1: 0.5 µg/mL
[4]; clinical isolate MRSA 15-2
  Anti-bacterial activity (MIC), strain MRSA 15-2: 1 µg/mL
[4]; clinical isolate MRSA 15-3
  Anti-bacterial activity (MIC), strain MRSA 15-3: 0.5 µg/mL
[4]; clinical isolate MRSA 15-4
  Anti-bacterial activity (MIC), strain MRSA 15-4: 1 µg/mL
[5]; clinical isolate EFM 15-1
  Anti-bacterial activity (MIC), strain EFM 15-1: 1 µg/mL
[5]; clinical isolate EFM 15-2
  Anti-bacterial activity (MIC), strain EFM 15-2: 2 µg/mL
[5]; clinical isolate EFM 15-3
  Anti-bacterial activity (MIC), strain EFM 15-3: 0.25 µg/mL
[5]; clinical isolate EFM 15-4
  Anti-bacterial activity (MIC), strain EFM 15-4: 1 µg/mL
[5]; clinical isolate EFM 15-5
  Anti-bacterial activity (MIC), strain EFM 15-5: 1 µg/mL
[5]; clinical isolate EFM 15-6
  Anti-bacterial activity (MIC), strain EFM 15-6: 2 µg/mL
[6]; clinical isolate MSSE 15-3
  Anti-bacterial activity (MIC), strain MSSE 15-3: 1 µg/mL
[6]; clinical isolate MSSE 15-4
  Anti-bacterial activity (MIC), strain MSSE 15-4: 1 µg/mL
[6]; clinical isolate MSSE 15-5
  Anti-bacterial activity (MIC), strain MSSE 15-5: 1 µg/mL
[6]; clinical isolate MSSE 15-6
  Anti-bacterial activity (MIC), strain MSSE 15-6: 1 µg/mL
[7]; clinical isolate MSSA 15-3
  Anti-bacterial activity (MIC), strain MSSA 15-3: 1 µg/mL
[7]; clinical isolate MSSA 15-4
  Anti-bacterial activity (MIC), strain MSSA 15-4: 0.5 µg/mL
[7]; clinical isolate MSSA 15-5
  Anti-bacterial activity (MIC), strain MSSA 15-5: 0.5 µg/mL
[7]; clinical isolate MSSA 15-6
  Anti-bacterial activity (MIC), strain MSSA 15-6: 0.5 µg/mL
[8]; clinical isolate ECO+ 15-1
  Anti-bacterial activity (MIC), strain ECO+ 15-1: 32 µg/mL
[8]; clinical isolate ECO+ 15-2
  Anti-bacterial activity (MIC), strain ECO+ 15-2: 32 µg/mL
[8]; clinical isolate ECO+ 15-3
  Anti-bacterial activity (MIC), strain ECO+ 15-3: 32 µg/mL
[8]; clinical isolate ECO+ 15-4
  Anti-bacterial activity (MIC), strain ECO+ 15-4: 32 µg/mL
[8]; clinical isolate ECO− 15-1
  Anti-bacterial activity (MIC), strain ECO− 15-1: 32 µg/mL
[8]; clinical isolate ECO− 15-2
  Anti-bacterial activity (MIC), strain ECO− 15-2: 32 µg/mL
[8]; clinical isolate ECO− 15-3
  Anti-bacterial activity (MIC), strain ECO− 15-3: 32 µg/mL
[8]; clinical isolate ECO− 15-4
  Anti-bacterial activity (MIC), strain ECO− 15-4: 32 µg/mL
[9]; clinical isolate BCA 14-1
  Anti-bacterial activity (MIC), strain BCA 14-1: 1 µg/mL
[9]; clinical isolate BCA 14-4
  Anti-bacterial activity (MIC), strain BCA 14-4: 2 µg/mL
[9]; clinical isolate BCA 14-5
  Anti-bacterial activity (MIC), strain BCA 14-5: 0.25 µg/mL
[9]; clinical isolate BCA 14-6
  Anti-bacterial activity (MIC), strain BCA 14-6: 4 µg/mL
[9]; clinical isolate BCA 14-7
  Anti-bacterial activity (MIC), strain BCA 14-7: 1 µg/mL
[9]; clinical isolate BCA 14-8
  Anti-bacterial activity (MIC), strain BCA 14-8: 4 µg/mL
[9]
  Anti-bacterial activity (MIC), strain BCA 14-10: 0.5 µg/mL
[10]
  inhibition at 30 µM: 24%

— patent publication US10738028B2, “Spiro three-membered ring, spiro five-membered ring peptide deformylase inhibitor and use thereof in antibacteria and anti-tumor” (priority 2016, dated 2020)
